Drawing on PubChem BioAssay (NCI), this text covers TGI for 8 compounds.

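Five compound concentrations were applied to cells in 96-well plates for 48 hours; endpoints were derived by simple linear interpolation of the resulting dose-response curve. TGI denotes the concentration required for complete inhibition of growth.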

Some test systems named below: SF-539 CNS; K-562 leukemia; UACC-62 melanoma; MDA-MB-231 breast; PC-3 prostate; NCI-H460 lung; BT-549 breast; SK-OV-3 ovarian; HS 578T breast; NCI/ADR-RES ovarian; SNB-75 CNS; OVCAR-5 ovarian; A549 NSCLC; SR leukemia; NCI-H23 lung; ACHN renal; T-47D breast; HT29 colon; HCC-2998 colon; HOP-92 NSCLC.
Test in all cases: growth of human tumour cells (NCI), 48 h

For `O=C(NNC(=O)c1ccccc1O)c1cccc(Br)c1`, the TGI in the assay on SF-539 CNS was above 100 µM; in the assay with K-562 leukemia, above 100 µM; with UACC-62 melanoma, above 100 µM; in the assay with MDA-MB-231 breast, above 77.7 µM; in the assay with PC-3 prostate it was above 100 µM; with NCI-H460 lung, above 100 µM. In addition, the TGI in the assay with BT-549 breast, with SK-OV-3 ovarian, in the assay on HS 578T breast, in the assay with NCI/ADR-RES ovarian, in the assay on SNB-75 CNS and in the assay with OVCAR-5 ovarian was above 100 µM throughout. Besides, the TGI with A549 NSCLC, with SR leukemia, in the assay on NCI-H23 lung, in the assay with ACHN renal, with T-47D breast and in the assay on HT29 colon was above 100 µM throughout. The compound further had a TGI in the assay with HCC-2998 colon above 100 µM.
For the compound `CSc1ccsc1-c1sc(-c2cc(SC)c(-c3sc(-c4cc(SC)c(-c5sccc5SC)s4)cc3SC)s2)cc1SC`, the TGI with SF-539 CNS, with K-562 leukemia, in the assay on UACC-62 melanoma, in the assay with MDA-MB-231 breast, in the assay with PC-3 prostate and in the assay with NCI-H460 lung was above 100 µM throughout. The TGI with BT-549 breast, with SK-OV-3 ovarian, in the assay on HS 578T breast, in the assay on NCI/ADR-RES ovarian, with OVCAR-5 ovarian and with A549 NSCLC was above 100 µM each time. In addition, the TGI was above 100 µM in the assay with NCI-H23 lung; above 100 µM in the assay with ACHN renal; 82.8 µM in the assay with T-47D breast; above 100 µM in the assay with HT29 colon; above 100 µM in the assay with HCC-2998 colon; above 100 µM in the assay with HOP-92 NSCLC.
Regarding `CN1C(=O)C2CCCC(=O)N2c2cccnc21` (centres undefined), the TGI with SF-539 CNS, in the assay on K-562 leukemia, with UACC-62 melanoma, in the assay with MDA-MB-231 breast, in the assay on NCI-H460 lung and in the assay on BT-549 breast was above 100 µM throughout. The TGI in the assay on HS 578T breast, in the assay on NCI/ADR-RES ovarian, in the assay with A549 NSCLC, in the assay on SR leukemia, in the assay with NCI-H23 lung and with ACHN renal was above 100 µM throughout. Besides, the TGI in the assay on T-47D breast, in the assay on HT29 colon and in the assay on HCC-2998 colon was above 100 µM each time.
Consider `CC(=O)OCC1OC(OC2CC3C(C)(C)C(O)CC[C@]3(C)C3CCC45CC4(CCC5[C@@H](C)CC(O)C(O)C(C)(C)O)[C@]23C)C(O)C(O)C1O` (some centres undefined), for which the TGI in the assay with SF-539 CNS, with K-562 leukemia, in the assay with UACC-62 melanoma, with MDA-MB-231 breast, in the assay on PC-3 prostate and with NCI-H460 lung was above 10 µM throughout. Further, the TGI in the assay with BT-549 breast, in the assay with SK-OV-3 ovarian, in the assay with HS 578T breast, in the assay on NCI/ADR-RES ovarian, in the assay with SNB-75 CNS and in the assay on OVCAR-5 ovarian was above 10 µM in each case. Moreover, the TGI with A549 NSCLC, in the assay with NCI-H23 lung, in the assay on ACHN renal, in the assay on T-47D breast, with HT29 colon and in the assay on HCC-2998 colon was above 10 µM throughout. The TGI in the assay on HOP-92 NSCLC is above 10 µM.
Regarding `CCOC(=O)Cc1ccc(Nc2nc3ccccc3nc2C(=O)OCC)cc1`, the TGI in the assay with SF-539 CNS, in the assay on UACC-62 melanoma, in the assay on PC-3 prostate, with NCI-H460 lung, in the assay on BT-549 breast and in the assay on SK-OV-3 ovarian was above 100 µM throughout. Moreover, the TGI was 88.9 µM in the assay with HS 578T breast; above 100 µM in the assay on NCI/ADR-RES ovarian; 38.3 µM in the assay with SNB-75 CNS; above 100 µM in the assay with OVCAR-5 ovarian; above 100 µM in the assay with A549 NSCLC; above 100 µM with SR leukemia. Further, the TGI in the assay on NCI-H23 lung, in the assay on ACHN renal, in the assay with T-47D breast, in the assay with HT29 colon and in the assay with HOP-92 NSCLC was above 100 µM throughout.
Regarding `CCOc1nnnc2nc[nH]c12`, the TGI with SF-539 CNS, in the assay on UACC-62 melanoma, in the assay with MDA-MB-231 breast, in the assay with PC-3 prostate, in the assay on NCI-H460 lung and in the assay on BT-549 breast was above 100 µM throughout. The TGI with SK-OV-3 ovarian, in the assay on HS 578T breast, with NCI/ADR-RES ovarian, in the assay with SNB-75 CNS, in the assay with OVCAR-5 ovarian and with A549 NSCLC was above 100 µM throughout. In addition, the TGI in the assay on NCI-H23 lung, in the assay with T-47D breast, with HT29 colon and in the assay on HCC-2998 colon was above 100 µM in each case.
On to `O=C(Cn1c(-c2ccccc2)cc2ccccc21)N1CCCC1`, for which the TGI in the assay with UACC-62 melanoma, in the assay on MDA-MB-231 breast, with PC-3 prostate, in the assay on NCI-H460 lung, in the assay on BT-549 breast and in the assay on SK-OV-3 ovarian was above 100 µM throughout. The TGI in the assay on HS 578T breast, in the assay with NCI/ADR-RES ovarian, in the assay on SNB-75 CNS, in the assay with OVCAR-5 ovarian, with A549 NSCLC and in the assay on SR leukemia was above 100 µM in each case. Besides, the TGI with ACHN renal, in the assay with T-47D breast, with HT29 colon and in the assay with HOP-92 NSCLC was above 100 µM throughout.
On to `Cc1ncc([N+](=O)[O-])n1CCNCCCCn1ccnc1[N+](=O)[O-]`, for which the TGI in the assay with SF-539 CNS, in the assay on K-562 leukemia, in the assay with UACC-62 melanoma, in the assay with MDA-MB-231 breast, in the assay with PC-3 prostate and with NCI-H460 lung was above 100 µM throughout. Further, the TGI in the assay on BT-549 breast, in the assay on SK-OV-3 ovarian, in the assay on HS 578T breast, in the assay with NCI/ADR-RES ovarian, in the assay with SNB-75 CNS and in the assay with OVCAR-5 ovarian was above 100 µM throughout. For the same compound, the TGI with A549 NSCLC, in the assay on SR leukemia, with NCI-H23 lung, in the assay with ACHN renal, with T-47D breast and with HT29 colon was above 100 µM each time. For the same compound, the TGI in the assay with HOP-92 NSCLC was above 100 µM.
